Measured values: patent publication US10920230B2, “Methylotrophs for aquaculture and animal feed” (KnipBio, Inc., priority 2013, dated 2021)
In brackets after ≈: the same amount, converted by molar mass.

Key:
[1] = tested on: wild-type B. fungorum LB400; test: Natural chloramphenicol resistance seen during selection of transconjugants; type: cell-based, Burkholderia fungorum; conditions: citrate medium
Description: A ΔflhA::kan mutant of B. fungorum LB400 was generated by introducing pCM363 by conjugation. […] One tetracycline-sensitive strain representing a ΔfIhA::kan mutant, CM363K.1, was chosen for further study. The plasmid pCM157 was used as described above to produce the ΔflhA strain CM363.1. Analytical PCR was performed with wild-type B. fungorum LB400, CM363K.1, and CM363.1 for confirmation (data not shown).

[2] = tested on: ΔflhA strain CM363.1

Structure (SMILES): O=C(N[C@H](CO)[C@H](O)c1ccc([N+](=O)[O-])cc1)C(Cl)Cl [chloramphenicol]
- naturally resistant below [1]: 10 to 20 µg/mL

Structure (SMILES): C=O [formaldehyde]
- MIC [2]: 100 µM (≈ 3 µg/mL)
